Source: article PMC5976665, “Identification of a peptide for folate receptor alpha by phage display and its tumor targeting activity in ovary cancer xenograft” (Scientific Reports, 2018)
Residues, ends and D or L forms follow the SMILES beside them. No end group written: not given here. *: point of attachment. FITC = O=C1OC2(c3ccc(O)cc3Oc3cc(O)ccc32)c2ccc(NC(=S)*)cc21

What was measured:
[1] = test system: SKOV3 cells; assay: Cell-based ELISA of phage clones on SKOV3 cells; parameters: species or system human; settings: FRα positive cells, fixed; 10^10 phages per well, 37 °C 2 h, HRP anti-M13
Excerpt: (§1) Phage clones with high ELISA value were further tested by cell-based ELISA. SKOV3 (human epithelial ovarian cancer cell) is a FRα expressing cell line and was used to evaluate the binding of selected phage clones to natural FRα protein on cell surface. HEPG2 (Human Liver Carcinoma Cell) without FRα expressing was used as a negative control. Both cell lines were purchased from Shanghai Cell Biology Institutes (Academia Sinica, Shanghai, China) and maintained in RPMI 1640 Medium with 10% fetal bovine serum and antibiotics. The presence or absence of FRα expression of the two cell lines were confirmed by flow cytometry described in 2.4. The cells were cultured in 96-well plate to 80% confluence and fixed with 4% paraformaldehyde. After blocking with 3% BSA for 2 h, 10^10 individual phages were added to each well and incubated at 37 °C for 2 h. Then the plate was washed with PBST for three times and cell-bound phage was detected with HRP-conjugated anti-M13 IgG (1:10000) as described in phage ELISA.

[2] = test system: HepG2 cells; assay: Cell-based ELISA of phage clones on HepG2 cells; parameters: species or system human; settings: FRα negative cells, fixed; 10^10 phages per well, 37 °C 2 h, HRP anti-M13
Excerpt: as §1

[3] = test system: SKOV3 cells; assay: Flow cytometry of phage clone binding to SKOV3 cells; format: cell-based, human; settings: 4 °C 1 h, mouse anti-M13 and FITC goat anti-mouse antibody
Procedure: SKOV3 cells were collected and suspended in 2% FCS-PBS medium at 1 × 10^6 cells/mL. Purified phage clones were incubated individually with the cells at 4 °C for 1 h. The cells were washed twice with 2% FCS-PBS by 5 min centrifugation at 300 g. Mouse anti-M13 antibody was diluted with 2% FCS-PBS (1:400) and incubated with cells for 30 min at 4 °C. After washing, the cells were stained for 30 min at 4 °C with FITC conjugated goat anti-mouse antibody (Fcmacs, Inc., Nanjing). Cells were analyzed as described above.

[4] = test system: SKOV3 implanted tumor; assay: In vivo homing of phage clones in SKOV3 xenografts; parameters: species or system Balb/c nude mice; settings: 2 × 10^11 phages i.v., circulated 15 min, phage titration per gram of tissue, n = 3
Procedure: Female Balb/c nude mice aged 6–8 weeks were purchased from the Yangzhou University Animal Center. All the animal studies were performed in compliance with the National Institutes of Health Guide for the Care and Use of Laboratory Animals and approved by IACUC (Institutional Animal Care and Use Committee of China Pharmaceutical University). The authors confirm that experiments involving laboratory animals adhered to the ethical standards of National Institutes of Health Guide and China Pharmaceutical University. The laboratory animals were used under the experimental animal production license 2121922. All animals were housed in a controlled environment (25 °C; 12 h light-dark cycle), with water and food provided freely. 2 × 10^6 SKOV3 cells were subcutaneously injected into the left flank of mice to generate epithelial ovarian cancer xenografts. 2 × 10^11 individual purified phage clones were injected intravenously and circulated for 15 min. After anesthetized with 10 mg/kg […] (5% w/v), the mice were perfused through the heart. Then, the tumor and main organs (liver, lung, kidney, heart and ovary) were harvested, weighed and homogenated. The homogenated tissues were washed, and lysed with 1% NP40. Bound phages were recovered by elution and titrated as described. The distribution of phages was calculated as phages per gram.

[5] = test system: SKOV3 xenograft tumor; assay: Tumor targeting of FITC conjugated synthetic peptide by fluorescence imaging; format: in vivo, nude mouse; settings: 200 μL of 10 mg/mL in PBS i.v., 2 h circulation, liver, lung, kidney, heart, ovary
Procedure: FITC conjugated peptide C7 was chemically synthesized by GL Biochem (Shanghai, China) and purified by high-performance liquid chromatography with more than 95% purity and confirmed by mass spectrometry. The FITC conjugated peptide was evaluated in tumor bearing mice for its tumor targeting capability. The peptide was dissolved in PBS at a concentration of 10 mg/mL and 200 μL was injected intravenously into a tumor bearing nude mouse. After 2 h circulation, tumor and other organ tissues (liver, lung, kidney, heart, and ovary) were harvested and analyzed using Carestream IS4000 fluorescence imaging system.

[6] = test system: SKOV3 cells; assay: Cell internalization by confocal microscopy, SKOV3 cells; format: cell-based, human; settings: FITC conjugated peptide 200 μg/mL, 4 hours at 37 °C
Procedure: To visualize internalization of synthesized peptide C7 into cells, SKOV3 or HepG2 cells were seeded in 24 well plates (10^5 cells/well) containing coverslips and incubated for 24 hours in RPMI 1640 medium with 10% FBS. FITC conjugated peptide C7 or PB-TUP[24] (VHWDFRQWWQPS) (200 μg/mL) was incubated with the cells for 4 hours at 37 °C. After incubation, the cells were washed once with PBS and fixed in 4% paraformaldehyde for 10 min. Cells were then washed three times with PBS and stained with DAPI for 20 min at room temperature. Internalized fluorescent signals were imaged with a Zeiss LSM800 confocal microscope.

[7] = target: T1, Native human folate receptor alpha (FRα) on SKOV3 cells (human (endogenous in SKOV3), UniProt P15328 25-234); assay: flow cytometry on cells; purified phage clones incubated with SKOV3 cells (1 × 10^6 cells/mL, 2% FCS-PBS) at 4 °C for 1 h; mouse anti-M13 antibody and FITC goat anti-mouse antibody; M13KE as negative control; settings: one partner purified
T1 construct: folate receptor alpha, endogenous on the surface of SKOV3 human epithelial ovarian cancer cells; also called natural FRα protein on cell surface; source: endogenous, on SKOV3 cells

[8] = target: T2, Recombinant human folate receptor alpha (FRα) (human, UniProt P15328 25-234); assay: MST; serial dilutions of FITC conjugated C7 in PBS pH 7.4 mixed with purified FRα protein (1 μg/mL), 5 min at room temperature; Monolith NT.115, standard capillaries; KD from the Hill formula; settings: both partners purified
T2 construct: folate receptor alpha, human; also called recombinant folate receptor α; purified FRα protein; source: E. coli system, purified with a Ni-column
T2 sequence (P15328 25-234): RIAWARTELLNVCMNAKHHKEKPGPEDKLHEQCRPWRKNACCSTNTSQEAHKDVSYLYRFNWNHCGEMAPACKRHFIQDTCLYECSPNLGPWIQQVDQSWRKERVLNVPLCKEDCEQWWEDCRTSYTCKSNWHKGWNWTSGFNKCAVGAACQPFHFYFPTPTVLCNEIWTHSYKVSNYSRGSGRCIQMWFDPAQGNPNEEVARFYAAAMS

T1 sequence (P15328 25-234): as above

In the case of “GALLPSMNKGHW [phage clone B8, phage clone displaying Gly-Ala-Leu-Leu-Pro-Ser-Met-Asn-Lys-Gly-His-Trp]”, the “binding to SKOV3 cells in cell-based ELISA” value [1] is reported as “highest binding” and the “binding to HepG2 cells in cell-based ELISA” value (from here on “binding to HepG2 cells”) [2] is reported as “relatively low binding”.

With “MNPYPRTPWPHV [phage clone G12, phage clone displaying Met-Asn-Pro-Tyr-Pro-Arg-Thr-Pro-Trp-Pro-His-Val]” the “binding to SKOV3 cells in cell-based ELISA” value [1] was “highest binding”, the “binding to HepG2 cells” value [2] was “relatively low binding” and the “specific binding to SKOV3 cells (FITC+ cells)” value [3] was 41.8%.

“YTNPYYSSHTRN [phage clone G8, phage clone displaying Tyr-Thr-Asn-Pro-Tyr-Tyr-Ser-Ser-His-Thr-Arg-Asn]” was tested, and the “binding to SKOV3 cells in cell-based ELISA” value [1] was “highest binding”, the “binding to HepG2 cells” value [2] was “relatively low binding” and the “specific binding to SKOV3 cells (FITC+ cells)” value [3] was 36.0%.

In the case of “MHTAPGWGYRLS [phage clone C7, phage clone from Ph.D.-12 library displaying the C7 dodecapeptide]”, the “binding to SKOV3 cells in cell-based ELISA” value [1] is reported as “highest binding”, the “binding to HepG2 cells” value [2] is reported as “relatively low binding” and the “specific binding to SKOV3 cells (FITC+ cells)” value [3] is reported as 51.2%. For the same molecule, the “phage enrichment in tumor tissue relative to M13KE phage in tumor” value [4] was 49 fold and the “phage titer in tumor relative to normal ovary” value [4] was 190 fold.

`CSCC[C@H](NC(=S)Nc1ccc2c(c1)C(=O)OC21c2ccc(O)cc2Oc2cc(O)ccc21)C(=O)N[C@@H](Cc1c[nH]cn1)C(=O)N[C@H](C(=O)N[C@@H](C)C(=O)N1CCC[C@H]1C(=O)NCC(=O)N[C@@H](Cc1c[nH]c2ccccc12)C(=O)NCC(=O)N[C@@H](Cc1ccc(O)cc1)C(=O)N[C@@H](CCCNC(=N)N)C(=O)N[C@@H](CC(C)C)C(=O)N[C@@H](CO)C(=O)O)[C@@H](C)O` [C7, Met-His-Thr-Ala-Pro-Gly-Trp-Gly-Tyr-Arg-Leu-Ser] ({FITC}-MHTAPGWGYRLS-OH; N-terminus and C-terminus assumed) was tested, and the “fluorescence signal in the tumor compared with other organs” value [5] was “significantly stronger compared to that in other organs except liver and kidney” and the “internalization into SKOV3 cells” value [6] was “can be internalized”.

B1: Phage clone B8/H1/G4 (peptide)
peptide: GALLPSMNKGHW
notes: dodecapeptide selected by phage display; printed in three-letter code; source: M13 phage clone from the Ph.D.-12 library, amplified in E. coli ER2738; purified phage for flow cytometry
With B1 the “percent specific binding to SKOV3 cells” value [7] was 31.8%.

B2: Phage clone C7 (peptide)
peptide: MHTAPGWGYRLS
notes: dodecapeptide selected by phage display; printed in three-letter code; the synthetic FITC peptide is m18; also called C7 phage clone; source: M13 phage clone from the Ph.D.-12 library, amplified in E. coli ER2738; purified phage for flow cytometry
With B2 the “percent specific binding to SKOV3 cells” value [7] was 51.2%.

B3: FITC conjugated peptide C7 (peptide)
peptide: {FITC}-MHTAPGWGYRLS
notes: dodecapeptide of phage clone C7, chemically synthesized; printed in three-letter code; also called C7 peptide; synthesized peptide C7; source: synthetic peptide (GL Biochem, Shanghai; HPLC, more than 95% purity)
In the case of B3, the Kd [8] is reported as 300 nM.

B4: Phage clone G8 (peptide)
peptide: YTNPYYSSHTRN
notes: as for B1
For B4, the “percent specific binding to SKOV3 cells” value [7] was 36%.

B5: Phage clone G12 (peptide)
peptide: MNPYPRTPWPHV
notes: as for B1
For B5, the “percent specific binding to SKOV3 cells” value [7] was 41.8%.
